Assay [1] has as its system granulation tissue. Description: Inhibitory effect on proliferation of granulation tissue (fertile egg method). Format: in vivo, Babcock strain chickens (fertile eggs). Particulars: for inhibitory effect on proliferation of granulation tissue (in words): fertile egg method. As to the method: The anti-inflammatory activity was tested by the inhibitory effect on proliferation of granulation tissue which is one of the tests for determining anti-inflammatory activity as follows:
Fertile eggs of Babcock strain chickens were incubated at 38° C. for 9 days. The shell and shell membrane were then removed according to the method of D'arcy et al (cf. D'arcy, P. F. et al, Brit. J. Pharmac. Chemother., 29, 378 (1967). A sterile filter paper disc (diameter: 9 mm) was implanted on the chorio-allantoic membrane and the opening in the shell was sealed with cellophane tape. The eggs were then reincubated for 4 days and at the end of this period, the filter paper disc with granulation tissue was dissected from the chorio-allantoic membrane and then dried at 60° C. for 12 hours. In order to assess the actual amount of granulation tissue present, the weight of filter paper disc which was used in this experiment was subtracted from the total weight of the disc plus granulation tissue.
The test compound was dissolved in an organic solvent (acetone) and 20 μl of the solution was applied on the each disc. The disc was dried and then used in this test. The mean weight of the granulation tissue in each group was compared with that of the control group which was treated with a vehicle alone.
Clavulone-1, clavulone-2, clavulone-3, clavulone-4 and clavulone-5 were used as the test compounds.

Assay [2] deals with DBA/MC fibrosarcoma cells. In words: Inhibitory activity on proliferation of DBA/MC fibrosarcoma cells. Format: cell-based, mice. To be noted: Mus musculus, 48 hours, read-out: Inhibitory Rate (%); for inhibition at 3 µg/mL: 3.0 μg/ml; for inhibition at 20 µg/mL: 20.0 μg/ml; for inhibition at 30 µg/mL: 30.0 μg/ml. As to the method:
(§1) Moreover, the anti-tumor activities of the clavulone derivatives (I) were tested by the inhibitory activity on propagation of leukemia L-1210 cells, DBA/MC fibrosarcoma cells, and B-16 melanoma cells in mice and also apothanasia effect of mice implanted with leukemia P388 cells and Ehrlich carcinoma cells as in the following experiments.
The test compounds (clavulone derivatives) were each dissolved in ethanol and diluted with a phosphate-buffer physiological saline solution and further diluted with an eagle's MEM medium in a prescribed concentration. Said eagle's MEM medium contained 20% by weight of fetal calf serum and 0.4% by weight of lactalubumin hydrolysates.
DBA/MC Fibrosarcoma cells (cell concentration: 2.5×10^4 cells/ml) were floated on the eagle's MEM medium and cultured under the conditions of 5% CO2 in air, saturated humidity and at 37° C. for 24 hours. Thereafter, the medium was replaced with the above test compound-containing medium and then it was cultured under the same conditions for 48 hours.
Immediately after the cultivation, the DBA/MC cells were fised with methanol and stained with Giemsa solution. The stained cells were counted with a microscope, and the number of stained cells was compared with that of the control group (no test compound was added). The inhibitory rate was calculated by the following equation: [formula]

The subject of assay [3] is leukemia L-1210 cells. In words: Inhibitory activity on proliferation of leukemia L-1210 cells. Format: cell-based, mice. To be noted: Mus musculus, L1210, 96 h, 4 days, read-out: Growth Rate (%) (viable cells, control = 100); for activity at 0.1 µg/mL: 0.1 μg/ml; for activity at 0.2 µg/mL: 0.2 μg/ml; for activity at 0.4 µg/mL: 0.4 μg/ml; for activity at 1 µg/mL: 1.0 μg/ml. The method, then: as §1
The test compounds (clavulone-1, -2 and -3) were each dissolved in ethanol and diluted with a medium (RPMI-1640) in a prescribed concentration. Said RPMI-1640 medium contained 10% by weight of fetal calf serum.
Leukemia L-1210 cells (cell concentration: 1×10^5 cells/ml) were inoculated in the RPMI-1640 medium containing the test compound (0.1 to 4.0 μg/ml) and cultured under the conditions of 5% CO2 in air, saturated humidity and at 37° C. for 4 days.
Immediately after the cultivation, the L-1210 cells were stained with trypan blue. Number of viable cells (i.e. cells which were not stained with trypan blue) was counted, and the number of viable cells was compared with that in the control group (no drug was added). The results are shown in Table 2, wherein the number of viable cells in the control group was counted as 100.

The subject of assay [4] is B-16 melanoma cells. In words: Anti-tumor effect on B-16 melanoma in mice. Format: in vivo, C57BL/6 female mice. Particulars: local injection. As to the method: C57BL/6 female mice (12 weeks old, weighing 18.4-21.6 g, each group: 10 animals) were used.
The test drug was prepared by dissolving clavulone-2 in ethanol and diluting with a saline solution in a concentration of clavulone-2 of 100 μg/ml.
B-16 melanoma cells were serially passaged in subcutaneously implanted form in C57BL/6 mice. The tumor cells were dissected out from C57BL/6 mice on 16th day after implantation, weighed, and mixed homogeneously with Hank's solution in a ratio of 1:9 by weight.
Tumor cells (2×10^5 cells/0.05 ml/mouse) were implanted subcutaneously. The test drug (clavulone-2, 10 μg/0.1 ml) was injected locally into tumor cell-implanted site for three weeks except the weekend. Control mice were injected with a vehicle (1% ethanol in saline solution) in the same as above.
After 21 days from the implantation of tumor cells, mice were killed by chloroform anethesia, and the tumor masses were removed and weighed. The anti-tumor effect of clavulone-2 was evaluated by means of growth inhibition rate calculated by the following equation:
Growth inhibition rate (%)=(1-T/C)×100
T: Mean tumor weight of mice treated with the test compound-containing solution
C: Mean tumor weight of mice treated with the vehicle solution.

The subject of assay [5] is Ehrlich carcinoma cells. Description: Anti-tumor effect in mice implanted with Ehrlich carcinoma cells. Format: in vivo, female ICR strain mice. Particulars: for MST / Survivors on 60th day/number of mice in one group / I.L.S. (%): 1st-4th day; for I.L.S. (%): 25 or more = effective. As to the method:
Six or twelve female ICR strain mice (6 weeks old, weighing 22.2-26.8 g) were used.
The test drug was prepared by mixing clavulone-2 with gum arabic, suspending the mixture in a sterilized saline solution in a concentration of clavulone-2 of 10, 18 or 25 mg/10 ml.
Ehrlich carcinoma cells were serially passaged in an ascites form in ICR strain mice. The tumor cells were harvested from ICR strain mice on 6th day after inoculation, washed with and resuspended in Hank's solution in a concentration of 5×10^5 cells/ml.
Tumor cells (1×10^5 cells/0.2 ml/mouse) were implanted intraperitoneally. The test drug (clavulone-2, 10 ml/kg) was injected intraperitoneally once a day from first to 4th day after the implantation of tumor cells. Control mice were injected with a saline solution in the same as above.
The anti-tumor effect of clavulone-2 was evaluated by means of I.L.S. (%) which was calculated by the following equation: [formula]

The test system of assay [6] is leukemia P388 cells. In words: Apothanasia effect in mice implanted with leukemia P388 cells. Format: in vivo, BDFI male mice. Particulars: intraperitoneal, once a day, 1st-4th and 7th-11th day. As to the method: Clavulone-2 was mixed with gum arabic in the ratio of 1.6:1 by weight and was mixed with a physiological saline solution in a prescribed concentration to give a test compound solution.
BDFI male mice (5 weeks old, weighing 22.0-24.4 g, 6 animals per group) were used.
Each mice was inoculated intraperitoneally with leukemia P388 cells (cell concentration: 1×10^7 cells/ml) in 0.2 ml Hank's solution. A solution of a test compound in a physiological saline solution was injected intraperitoneally once a day from the first day to 4th day and also from 7th day to 11th day after inoculation of the tumor cells. The control group was given with a vehicle (a physiological saline solution) alone in the same way.
The apothanasia effect of the test compound was estimated by comparing mean survival time between the medicated group and the control group by the following equation: [formula]

Setting [7] is: 10 μg/0.1 ml, three weeks except weekend, 21 days.

Turning to `COC(=O)CCC(/C=C/C=C1/C(=O)C=CC1(C/C=C\CCCCCOC(C)=O)OC(C)=O)OC(C)=O` (centres unmarked) [Clavulone-4], in assay [1] (Dose 30, on filter paper disc), the “Inhibitory rate (%)” value came out at 18.3%. In addition, the “Inhibitory rate (%)” value in assay [1] (Dose 100, on filter paper disc) turned out to be 34.2%. Besides, the “inhibitory effect on proliferation of granulation tissue (in words)” value (“inhibitory effect on proliferation” for short) in assay [1] is given as “showed the inhibitory effect on proliferation of granulation tissue”. Moreover, in assay [2], the inhibition at 3 µg/mL was 0% and the inhibition at 20 µg/mL was determined as 100%.

For `CCCCC/C=C\CC1(OC(C)=O)C=CC(=O)/C1=C\C=C\C(CCC(=O)OC)OC(C)=O` (centres unmarked) [Clavulone-3], the “Inhibitory rate (%)” value in assay [1] (Dose 30, on filter paper disc) is given as 26.1%. In assay [1] (Dose 100, on filter paper disc), the “Inhibitory rate (%)” value was determined as 31.0%. Further, in assay [1], the “inhibitory effect on proliferation” value is on record as “showed the inhibitory effect on proliferation of granulation tissue”. Further, in assay [3], the activity at 0.1 µg/mL is 87.5%, the activity at 0.2 µg/mL is 52%, the activity at 0.4 µg/mL turned out to be 17.2% and the activity at 1 µg/mL was determined as 0%. In assay [2], the inhibition at 3 µg/mL was found to be 0% and the inhibition at 20 µg/mL was 100%.

As to `COC(=O)CCC(/C=C\C=C1\C(=O)C=CC1(C/C=C\CCCCCOC(C)=O)OC(C)=O)OC(C)=O` (centres unmarked) [Clavulone-6], in assay [2], the inhibition at 3 µg/mL was found to be 90%, the inhibition at 20 µg/mL came to 100% and the inhibition at 30 µg/mL amounted to 100%. Moreover, the “Growth inhibition rate (%)” value in assay [4] (setting [7]) is 73%. Moreover, the “growth of B-16 melanoma in mice (in words)” value in assay [4] (21 days) is given as “regressed significantly”.

In the case of `COC(=O)CCC(/C=C/C=C1\C(=O)C=CC1(C/C=C\CCCCCOC(C)=O)OC(C)=O)OC(C)=O` (centres unmarked) [Clavulone-5], the “Inhibitory rate (%)” value in assay [1] (Dose 30, on filter paper disc) stood at 18.2%. Also, in assay [1] (Dose 100, on filter paper disc), the “Inhibitory rate (%)” value is on record as 31.6%. For the same compound, the “inhibitory effect on proliferation” value in assay [1] was “showed the inhibitory effect on proliferation of granulation tissue”. Besides, in assay [2], the inhibition at 3 µg/mL turned out to be 0% and the inhibition at 20 µg/mL amounted to 100%.

As to `CCCCC/C=C\CC1(OC(C)=O)C=CC(=O)/C1=C/C=C/C(CCC(=O)OC)OC(C)=O` (centres unmarked) [Clavulone-2], the “Inhibitory rate (%)” value in assay [1] (Dose 30, on filter paper disc) came to 10.1%. The “Inhibitory rate (%)” value in assay [1] (Dose 100, on filter paper disc) was 21.0%. In assay [1], the “inhibitory effect on proliferation” value was “showed the inhibitory effect on proliferation of granulation tissue”. In assay [5] (10 mg/kg, intraperitoneal), the “MST” value was determined as 26.5 days, the “Survivors on 60th day/number of mice in one group” value is 2/6 and the “I.L.S. (%)” value was found to be 23%. For the same compound, the “animals survived 60 days after implantation of tumor cells” value in assay [5] (18 mg/10 ml/kg) is reported as 50%. For the same compound, in assay [5] (18 mg/kg, intraperitoneal), the “MST” value was determined as 50.0 days, the “Survivors on 60th day/number of mice in one group” value is 3/6 and the “I.L.S. (%)” value came to 133%. The “activity against Ehrlich ascites tumor in vivo (in words)” value in assay [5] (intraperitoneal) is listed as “high activity against Ehrlich ascites tumor in vivo”. Besides, in assay [3], the activity at 0.1 µg/mL was 61.5%, the activity at 0.2 µg/mL came out at 55.4%, the activity at 0.4 µg/mL was found to be 16.9% and the activity at 1 µg/mL came to 0%. Besides, in assay [2], the inhibition at 3 µg/mL stood at 0% and the inhibition at 20 µg/mL is 100%. In assay [4] (setting [7]), the “Growth inhibition rate (%)” value is reported as 73% and the “Mean tumor weight (g; ± S.E.)” value is listed as 0.882 ± 0.388 g. Besides, the “number of survivors 21th day after implantation of tumor cells” value in assay [4] (10 μg/0.1 ml, group of 10 animals) was 10. Moreover, the “Apothanasia effect (%)” value in assay [6] (4.0 mg/kg) is 130%. Further, the “Apothanasia effect (%)” value in assay [6] (8.0 mg/kg) is recorded as 130%.

`CCCCC/C=C\CC1(OC(C)=O)C=CC(=O)/C1=C/C=C\C(CCC(=O)OC)OC(C)=O` (centres unmarked) [Clavulone-1]: the “Inhibitory rate (%)” value in assay [1] (Dose 30, on filter paper disc) was found to be 15.8%. Moreover, the “Inhibitory rate (%)” value in assay [1] (Dose 100, on filter paper disc) is 30.4%. Further, the “inhibitory effect on proliferation” value in assay [1] is “showed the inhibitory effect on proliferation of granulation tissue”. Also, in assay [3], the activity at 0.1 µg/mL amounted to 100%, the activity at 0.4 µg/mL amounted to 24.7% and the activity at 1 µg/mL turned out to be 0%. For the same compound, in assay [2], the inhibition at 3 µg/mL is 50% and the inhibition at 20 µg/mL came out at 100%.

Turning to `CCCCCCCCC1CCC(=O)C1CCCC(CCC(=O)OC)OC(C)=O` (centres unmarked) [Clavulone-13], in assay [2], the inhibition at 3 µg/mL was 0% and the inhibition at 30 µg/mL amounted to 100%.
